Data as given in patent US8336545B2, “Methods and systems for operating an aerosol generator” (priority 2001, dated 2012).
Where two headings read alike, the source gives them in different places.

Experiments:
[1] = assay type: in vivo; settings: all Arm 1 and 2 patients
Protocol: A study, using a double-blind, placebo-controlled protocol, was conducted of nebulized amikacin delivered using one or more embodiments of the pulmonary drug delivery system of the present invention in ventilated patients with Gram-negative pneumonia. The aerosol therapy was adjunctive to IV therapy per American Thoracic Society (ATS) guidelines. Such guidelines are fully set forth, for example, in the American Journal of Respiratory Critical Care Medicine, Vol 171, pages 388-416 (2005), incorporated by reference herein in its entirety. Twelve patients were randomized equally to three study arms: Arm 1 received an aerosolized dose of 400 mg amikacin once daily, and thereafter alternating every twelve hours with placebo. Arm 2 patients received 400 mg of amikacin twice daily (i.e. […]). Patients in Arm 3 were randomized to two aerosolized treatments of placebo every twelve hours. The placebo was Normal saline. […] Amikacin levels were monitored by daily blood sampling. […] The apparent volume of epithelial lining fluid (ELF) recovered by BAL was determined by using urea as an endogenous marker of dilution. The same day, the amikacin concentration was determined in tracheal aspirates (TA) collected 15 min and 1, 2, 4, 8 and 12 hours post aerosol delivery.

[2] = design: species or system patients; settings: in vivo
Protocol: In this Example, the dose-response to aerosolized amikacin, administered in accordance with one or more embodiments of devices, apparatus and/or methods of the present invention was evaluated, as was the ability to deliver a predefined target multiple of an MIC for Gram-negative bacteria causing pneumonia, including, Pseudomonas species, in the tracheal aspirates (TA). […] Thus the desired multiple is 6,400 μg/mL.
(§1) A study, using a double-blind, placebo-controlled protocol, was conducted of nebulized amikacin delivered using one or more embodiments of the pulmonary drug delivery system of the present invention in ventilated patients with Gram-negative pneumonia. The aerosol therapy was adjunctive to IV therapy per American Thoracic Society (ATS) guidelines. In this study, sixty seven patients received at least one dose of aerosol medication. Patients were randomized equally to three study arms. Arm 1 patients received an aerosolized dose of 400 mg amikacin once daily, alternating with a placebo on a twelve hour schedule. Arm 2 patients received 400 mg of amikacin twice daily (i.e. […]). Patients in Arm 3 were randomized to two aerosol treatments of placebo every twelve hours. The placebo was Normal saline. The amikacin concentration was determined in TA collected 15 min and 1, 2, 4, 8 and 12 hours after delivery of the morning dose on Days 1 and 3. A PDDS/ventilator circuit configuration was as described for Example B. The microprocessor was set to deliver aerosol during the first approximately 75% of the inspiration, to achieve aerosol drug deposition of 50-75% of the dose, within approximately 45 to 60 minutes. Amikacin levels were monitored by daily blood sampling.

Gram-negative pneumonia [3] = test: Example C: clinical outcome, IV antibiotic days and tolerability; assay type: in vivo, patients; settings: placebo group versus aerosol group, p=0.02
Protocol: as §1

Gram-negative pneumonia [4] = assay type: in vivo, patients
Protocol: A study, using a double-blind, placebo-controlled protocol, was conducted of nebulized amikacin delivered using one or more embodiments of the pulmonary drug delivery system of the present invention in ventilated patients with Gram-negative pneumonia. The aerosol therapy was adjunctive to IV therapy per American Thoracic Society (ATS) guidelines. Patients were randomized equally to three study arms. Arm 1 patients received an aerosolized dose of 400 mg amikacin once daily, alternating with a placebo on a twelve hour schedule. Arm 2 patients received 400 mg of amikacin twice daily (i.e. […]). Patients in Arm 3 were randomized to two aerosol treatments of placebo every twelve hours. The placebo was Normal saline. Peak amikacin concentration was determined in serum collected 0.25, 1, 2, and 4 hours after delivery of the dose on days 1 and 3, and the data was used to calculate Cmax. Trough concentrations were determined daily 30 minutes prior to the first daily dose. A PDDS/ventilator circuit configuration was as described for Example B. The microprocessor was set to deliver aerosol during the first approximately 75% of the inspiration, to achieve aerosol drug deposition of 50-75% of the dose within approximately 45 to 60 minutes. Amikacin levels were monitored by daily blood sampling.
The embodiments of devices, apparatus and/or methods of the present invention thus reduce the number of antibiotics required systemically to achieve a therapeutic result.

[5] = test system: Gram-negative, pneumonia-causing bacteria; settings: locally in TA; cited from earlier work
[6] = 400 mg daily (N = 20), percent of patients
[7] = 400 mg twice daily (N = 16), count
[8] = 400 mg twice daily (N = 16), percent of patients

## NCC[C@H](O)C(=O)N[C@@H]1C[C@H](N)[C@@H](O[C@H]2O[C@H](CN)[C@@H](O)[C@H](O)[C@H]2O)[C@H](O)[C@H]1O[C@H]1O[C@H](CO)[C@@H](O)[C@H](N)[C@H]1O [amikacin]
[1]
  amikacin levels versus highest MIC values: exceeded the highest MIC values for pathogens causing Gram-negative pneumonia
[2]; human
  TA levels of amikacin: exceeded 1,100 μg/mL
[2]
  TA level as multiple of the reference MIC target value: at least four
  amikacin level versus highest MIC values: exceeded the highest MIC values for most Gram negative pathogens causing pneumonia
Gram-negative pneumonia [3]
  IV antibiotic days at the end of aerosol administration: placebo group had statistically more IV antibiotic days then the aerosol group
Gram-negative pneumonia [4]; 400 mg BID, end of treatment (mean of seven days)
  mean IV antibiotics at end of treatment, aerosolized placebo relative to twice daily aerosolized amikacin: about two
Gram-negative pneumonia [4]; 400 mg daily (N = 20)
  Total Number of Daily Antimicrobials: 118
Gram-negative pneumonia [4]; 400 mg daily (N = 20), count
  Number of Patients With at Least One Daily Antimicrobial: 19
  patients with ANTIBACTERIALS FOR SYSTEMIC USE: 18
Gram-negative pneumonia [4]; [6]
  Number of Patients With at Least One Daily Antimicrobial: (95.0%)
  patients with ANTIBACTERIALS FOR SYSTEMIC USE: (90.0%)
Gram-negative pneumonia [4]; 400 mg twice daily (N = 16)
  Total Number of Daily Antimicrobials: 75
Gram-negative pneumonia [4]; [7]
  Number of Patients With at Least One Daily Antimicrobial: 16
  patients with ANTIBACTERIALS FOR SYSTEMIC USE: 16
Gram-negative pneumonia [4]; [8]
  Number of Patients With at Least One Daily Antimicrobial: (100.0%)
  patients with ANTIBACTERIALS FOR SYSTEMIC USE: (100.0%)
[5]
  reference MIC value: 256 µg/mL
